{"source": "patent US12458610B2", "about": "“Pharmaceutical composition for treating or preventing diabetic cataract” (KOREA UNIVERSITY RESEARCH AND BUSINESS FOUNDATION, priority 2019, dated 2025)", "format_in_all_cases": "in vivo, rat", "key": {"TNFα": {"tested_on": "TNFα", "assay": "TNFα level in blood (plasma)", "conditions": "OLETF rats, midodrine 0.3 mg/kg/day (OLETF-M0.3); OLETF 10.667±2.732, LETO 7.23±0.722", "from_the_text": "(§1) Otsuka Long-Evans Tokushima Fatty (OLETF) rats were used as a diabetes animal model of rats. The OLETF rats are widely used as a type 2 diabetes animal model because fat accumulation and hyperglycemia are induced in the body of the experimental animals and the pathological condition is similar to that of type 2 diabetes in human. Long-Evans Tokushima Otsuka (LETO) rats were used as a normal control group. The OLETF rats were divided into three groups depending on midodrine intake: OLETF, OLETF-M0.3 and OLETF-M1.0. The OLETF group was raised without intake of midodrine, the OLETF-M0.3 group was made to ingest 0.3 mg of midodrine every day per body weight (midodrine 0.3 mg/kg/day), and the OLETF-M1.0 group was made to ingest 1.0 mg of midodrine every day per body weight (midodrine 1.0 mg/kg/day). Midodrine was dissolved in drinking water so that the rats could ingest the corresponding daily dosage.\n(§2) The experimental animals were divided into four groups: LETO, OLETF, OLETF-M0.3 and OLETF-M1.0, and all the experimental animals were raised for 12 weeks. During the 12 weeks, the OLETF-M0.3 group and the OLETF-M1.0 group were made to ingest midodrine every day."}, "[1]": {"assay": "Fasting blood sugar level in diabetes model rats, weekly by blood glucose meter", "conditions": "midodrine 1.0 mg/kg/day in drinking water (OLETF-M1.0), from week 9", "from_the_text": "as §1, §2"}, "[2]": {"tested_on": "Otsuka Long-Evans Tokushima Fatty (OLETF) rats", "assay": "Onset of cataract in lens by retroillumination imaging (LOCS III C1/P1 or higher)", "conditions": "untreated OLETF 8 out of 12 eyes", "from_the_text": "as §1, §2"}, "hexokinase": {"tested_on": "hexokinase", "assay": "Hexokinase level in lens by ELISA", "conditions": "OLETF rats, untreated OLETF significantly lower than LETO", "from_the_text": "as §1, §2\n(§3) The levels of aldose reductase, hexokinase and ATP in the lens sample were measured with a spectrophotometer (Spectramax Plus 384; Molecular Devices, Sunnyvale, CA, USA) by ELISA assay."}, "aldose reductase": {"tested_on": "aldose reductase", "assay": "Aldose reductase level in lens by ELISA", "conditions": "OLETF rats, OLETF 38.4±3.1, LETO 37.2±2.8", "from_the_text": "as §1, §2, §3"}, "ATP": {"tested_on": "ATP", "assay": "ATP level in lens by ELISA", "conditions": "OLETF rats, OLETF 2.307±0.225, LETO 2.622±0.146", "from_the_text": "as §1, §2, §3"}, "[3]": {"assay": "Body weight change in diabetes model rats", "conditions": "OLETF rats; for body weight over time: raising period", "from_the_text": "as §1, §2"}, "[4]": {"tested_on": "Otsuka Long-Evans Tokushima Fatty (OLETF) rats", "assay": "Lens transparency: clarity of graph paper pattern seen through the lens (ImageJ)", "conditions": "midodrine 0.3 mg/kg/day for 12 weeks (OLETF-M0.3), untreated OLETF significantly decreased", "from_the_text": "as §1, §2"}, "[5]": {"tested_on": "AMPK (AMP-activated protein kinase)", "assay": "AMPK level in lens", "conditions": "OLETF rats, midodrine 0.3 mg/kg/day (OLETF-M0.3); OLETF 0.0509±0.0293 U/mL"}, "[6]": {"conditions": "midodrine 0.3 mg/kg/day (OLETF-M0.3)"}, "[7]": {"conditions": "midodrine 1.0 mg/kg/day (OLETF-M1.0)"}}}
{"smiles": "COc1ccc(OC)c(C(O)CNC(=O)CN)c1", "note": "(racemic) [midodrine, (RS)—N-[2-(2,5-dimethoxyphenyl)-2-hydroxyethyl]glycinamide]", "values": [{"measurement": "level of the inflammatory cytokine TNFα in blood (plasma)", "setting": "TNFα", "result": "5.383 ± 0.984", "unit": "pg/mL"}, {"measurement": "fasting blood sugar level as compared to the OLETF group", "setting": "[1]", "result": "decreased slightly"}, {"measurement": "eyes with cataract observed", "setting": "[2]; midodrine 0.3 mg/kg/day for 12 weeks (OLETF-M0.3)", "result": "1 out of 10"}, {"measurement": "eyes with cataract observed", "setting": "[2]; midodrine 1.0 mg/kg/day for 12 weeks (OLETF-M1.0)", "result": "2 out of 8"}, {"measurement": "hexokinase level in lens as compared to the LETO group", "setting": "hexokinase; [6]", "result": "no significant difference"}, {"measurement": "hexokinase level in lens as compared to the LETO group", "setting": "hexokinase; [7]", "result": "no significant difference"}, {"measurement": "level of aldose reductase in lens", "setting": "aldose reductase; [6]", "result": "33.6±2.6", "unit": "U/L"}, {"measurement": "level of aldose reductase in lens", "setting": "aldose reductase; [7]", "result": "34.1±2.8", "unit": "U/L"}, {"measurement": "level of ATP in lens", "setting": "ATP; [6]", "result": "3.065 ± 0.202", "unit": "ng/mL"}, {"measurement": "level of ATP in lens", "setting": "ATP; [7]", "result": "3.025 ± 0.299", "unit": "ng/mL"}, {"measurement": "body weight compared with the LETO group", "setting": "[3]; midodrine 0.3 mg/kg/day (OLETF-M0.3), from week 9", "result": "no significant difference"}, {"measurement": "body weight over time", "setting": "[3]; midodrine 0.3 mg/kg/day in drinking water (OLETF-M0.3)", "result": "decreased slightly with time"}, {"measurement": "body weight over time", "setting": "[3]; midodrine 1.0 mg/kg/day in drinking water (OLETF-M1.0)", "result": "decreased slightly with time"}, {"measurement": "lens transparency compared with the LETO group", "setting": "[4]", "result": "no significant difference"}, {"measurement": "AMPK level in lens as compared to the OLETF group", "setting": "[5]", "result": "significantly increased"}]}
